The values that follow come from PMC8151276, “An Integrated Approach toward NanoBRET Tracers for Analysis of GPCR Ligand Engagement” (Molecules, 2021).

The target of the experiment is T1, CYSLTR2 (Homo sapiens, UniProt Q9NS75).
T1 construct: purchased Promega (in-house HiBiT-GPCR construct library, NanoBRET)
T1 sequence (Q9NS75 1-346): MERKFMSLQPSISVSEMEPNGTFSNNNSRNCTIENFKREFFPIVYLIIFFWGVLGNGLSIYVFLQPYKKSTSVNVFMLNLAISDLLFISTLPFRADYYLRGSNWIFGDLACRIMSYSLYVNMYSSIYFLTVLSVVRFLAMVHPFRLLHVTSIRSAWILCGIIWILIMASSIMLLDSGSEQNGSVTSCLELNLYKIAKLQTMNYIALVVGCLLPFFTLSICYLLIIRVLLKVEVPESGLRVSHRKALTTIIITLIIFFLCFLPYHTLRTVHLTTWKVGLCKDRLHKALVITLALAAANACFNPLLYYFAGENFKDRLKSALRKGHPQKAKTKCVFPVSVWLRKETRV
In words: NanoBRET screen HiBiT-CYSLTR2 in HEK293. Type of experiment: binding. As for the experimental part:
Each tracer candidate was screened across the entire library of HiBiT-GPCR constructs using NanoBRET as the detection modality. As depicted in Figure 4A, the specificity of interactions was evaluated through decrease in BRET due to competitive displacement of a bound tracer by excess parental compound. Each tracer was analyzed for binding to each HiBiT-GPCR fusion in the absence and in the presence of competing parental compound. Briefly, HEK293 cells were transfected with HiBiT-GPCR constructs diluted into promoterless DNA to reduce expression and maximize translocation to the cell surface. Each tracer candidate was then screened at concentrations of 1 μM and 0.1 μM across cells expressing these fusions. Cells were treated for 1.5 h with tracer either alone or in the presence of 20 μM competing parental compound (i.e., control). BRET was measured upon addition of purified LgBiT and subsequent complementation with HiBiT genetically fused to a GPCR. The specificity of interactions was assessed through a decrease in BRET signal due to competitive displacement of the bound tracer. To further gauge the robustness of these interactions, the fold response over the control (i.e., BRETtracer/BRETcontrol) was calculated. We chose a 1.5-fold response, which translates to ≥7-fold signal over noise as the minimal threshold required to score an interaction as positive. […]. Below we highlight the screening results obtained for our exemplary fluorescent tracers based on Clozapine, Amitriptyline and AZD1283.
HiBiT-GPCR DNA constructs were diluted in 10 mM Tris pH 8 to a final concentration of 0.01 μg/μL, arrayed in 96-well plates and stored at −20 °C. For transfection, HEK293 cells were suspended in Opti-MEM (without phenol red) supplemented with 2% fetal bovine serum (Seradigm) and 100 units/mL penicillin–streptomycin (Gibco) at a final concentration of 220,000 cells/mL and dispensed into white 96-well plates at 90 μL/well. Subsequent transfections and screens were carried using an Agilent Bravo Automated Liquid Handling Platform. First, the 96-well HiBiT DNA arrays were diluted 25-fold in Opti-MEM (without serum or phenol red) to a final concentration of 0.0004 μg/μL and 20 μL of the diluted DNAs were transferred into new 96-well plates. Next, promoterless carrier DNA (1 μg/μL) was diluted 25-fold (0.04 μg/μL) and then dispensed into the diluted arrays at 20 μL/well. Following brief mixing, Viafect transfection reagent (Promega) diluted 16-fold into Opti-MEM was dispensed into the plates at 40 μL/well. After mixing by pipetting, plates were incubated for 10 min on the pipetting station deck. The DNA-transfection reagent complexes were then added to plates containing cells. To facilitate the screen, 10 μL of DNA-transfection reagent complexes were added in duplicates to the top 4 and bottom 4 rows, resulting in two identical 48-well arrays per plate. Plates with transfected cells were incubated for 18–20 h at 37 °C/5% CO2. A screen of each tracer across the entire library using two different concentrations requires duplicate plates of transfected cells. Depending on the number of tracers being screened, transfections can be scaled up using the same ratios. The next day, for each tracer, four 20× screening solutions in tracer dilution buffer (Promega) were prepared: two duplicates at final concentration of 20 μM and two duplicates at a final concentration of 2 μM. A competing unmodified compound was added to one of each duplicate at a final concentration of 400 μM. The four resulting solutions were diluted 4-fold in Opti-MEM without serum or phenol red to generate 5× solutions (5 µM and 0.5 µM tracer +/− 100 μM competing compound). To screen the library, a BioTek MultiFlo FX liquid dispenser was used to dispense 22.5 µL of tracer solution to the top 4 rows and 22.5 µL tracer + competing compound solution to the 4 bottom rows. Plates were briefly mixed on an orbital shaker and incubated for 1.5 h at room temperature. […]

On to `O=C(CCc1ccc2n1[B-](F)(F)[N+]1=C(c3ccc[nH]3)C=CC1=C2)NCc1ccc(C(=O)NCCOCCC(=O)N[C@@H]2CC[C@@]3(O)[C@H]4Cc5ccc(O)c6c5[C@@]3(CCN4CC3CC3)[C@H]2O6)cc1` [Naltrexone-3-NB590], for which the “NanoBRET Fold Response” value is, setting by setting: (CYSLTR2, tracer 0.1μM) 1.05; (CYSLTR2, tracer 1μM) 0.98.
Consider `CN1CCN(C2=Nc3cc(Cl)ccc3N(CC(=O)NCCOCCOCCOCCOCCNC(=O)CCc3ccc4n3[B-](F)(F)[N+]3=C(c5ccc[nH]5)C=CC3=C4)c3ccccc32)CC1` [Clozapine-c-2-NB590], for which the “NanoBRET Fold Response” value is on record as 1.04 (CYSLTR2, 0.1μM tracer) and 1.07 (CYSLTR2, 1μM tracer).
The matching figures for `O=C(CCOCCOCCOCCOCCNC(=O)CCc1ccc2n1[B-](F)(F)[N+]1=C(c3ccc[nH]3)C=CC1=C2)NCCCN1CCN(C2=Nc3cc(Cl)ccc3Nc3ccccc32)CC1` [Clozapine-a-2-NB590]: 0.99 and 1.03.
For `CCOC(=O)c1cc(C#N)c(N2CCC(C(=O)NS(=O)(=O)Cc3ccccc3/C=C/C(=O)NCCNC(=O)CCc3ccc4n3[B-](F)(F)[N+]3=C(c5ccc[nH]5)C=CC3=C4)CC2)nc1C` [AZD1283-1-NB590], the “NanoBRET Fold Response” value by setting is: (CYSLTR2, 0.1μM) 1.07; (CYSLTR2, 1μM) 0.97.
For the compound `COc1ccc2[nH]c(-c3ccc(CNC(=O)CCOCCOCCOCCOCCNC(=O)CCc4ccc5n4[B-](F)(F)[N+]4=C(c6ccc[nH]6)C=CC4=C5)cc3)c(CCNC(C)=O)c2n1` [AzomelatoninICO9-2-NB590], the “NanoBRET Fold Response” value reads like this: (0.1μM tracer) 1.03; (1μM tracer) 1.06.
As to `CCCn1c(=O)c2[nH]c(-c3ccc(OCC(=O)NCCNC(=O)CCOCCNC(=O)c4ccc(CNC(=O)CCc5ccc6n5[B-](F)(F)[N+]5=C(c7ccc[nH]7)C=CC5=C6)cc4)cc3)nc2n(CCC)c1=O` [XAC-3-NB590], the “NanoBRET Fold Response” value is, setting by setting: (CYSLTR2, tracer 0.1μM) 1.08; (CYSLTR2, tracer 1μM) 1.01.
Consider `COc1ccccc1N1CCN(CCCCN2C(=O)c3ccc(CNC(=O)CCOCCNC(=O)c4ccc(CNC(=O)CCc5ccc6n5[B-](F)(F)[N+]5=C(c7ccc[nH]7)C=CC5=C6)cc4)cc3C2=O)CC1` [NAN-190-3-NB590], for which the “NanoBRET Fold Response” value amounted to 1.11 (CYSLTR2, tracer 0.1μM) and 1.31 (CYSLTR2, tracer 1μM).
For the compound `O=C(CCc1ccc2n1[B-](F)(F)[N+]1=C(c3ccc[nH]3)C=CC1=C2)NCc1ccc(C(=O)NCCOCCOCCNCC(O)COc2cccc3ccccc23)cc1` (stereo not drawn) [Propranolol-3-NB590], the “NanoBRET Fold Response” value by setting is: (CYSLTR2, 0.1μM) 0.54; (CYSLTR2, 1μM) 1.01.
On to `COc1ccc2c(n1)c(CCNC(C)=O)cn2CCNC(=O)CCc1ccc2n1[B-](F)(F)[N+]1=C(c3ccc[nH]3)C=CC1=C2` [Azamelatonin-1-NB590], for which the “NanoBRET Fold Response” value runs as follows: (0.1μM tracer) 1.37; (1μM tracer) 0.46.
On to `O=C(CCOCCOCCOCCOCCNC(=O)CCc1ccc2n1[B-](F)(F)[N+]1=C(c3ccc[nH]3)C=CC1=C2)NCCCN1CCN(C2=Nc3ccccc3Oc3ccc(Cl)cc32)CC1` [Loxapine-a-2-NB590], for which the “NanoBRET Fold Response” value is, setting by setting: (CYSLTR2, tracer 0.1μM) 0.91; (CYSLTR2, tracer 1μM) 1.02.
As for `CC(C)N(CC[C@H](c1ccccc1)c1cc(CCNC(=O)c2ccc(CNC(=O)CCc3ccc4n3[B-](F)(F)[N+]3=C(c5ccc[nH]5)C=CC3=C4)cc2)ccc1O)C(C)C` [Tolterodine-BZ-NB590], the “NanoBRET Fold Response” value is, setting by setting: (CYSLTR2, tracer 0.1μM) 1.00; (CYSLTR2, tracer 1μM) 1.08.
The matching figures for `O=C(CCc1ccc2n1[B-](F)(F)[N+]1=C(c3ccc[nH]3)C=CC1=C2)NCCOCCOCCNC(=O)OCCOCCN1CCN(C2=Nc3ccccc3Sc3ccccc32)CC1` [Quetiapine-a-2-NB590]: 0.88 and 0.85.
Consider `CN1CCN(C2=Nc3cc(Cl)ccc3Nc3ccc(CNC(=O)CCOCCOCCOCCOCCNC(=O)CCc4ccc5n4[B-](F)(F)[N+]4=C(c6ccc[nH]6)C=CC4=C5)cc32)CC1` [Clozapine-b-2-NB590], for which the “NanoBRET Fold Response” value reads like this: (CYSLTR2, 0.1μM tracer) 1.01; (CYSLTR2, 1μM tracer) 1.03.
For the compound `CC(C)N(CC[C@H](c1ccccc1)c1cc(CCNC(=O)CCOCCOCCOCCOCCNC(=O)CCc2ccc3n2[B-](F)(F)[N+]2=C(c4ccc[nH]4)C=CC2=C3)ccc1O)C(C)C` [Tolterodine-2-NB590], the “NanoBRET Fold Response” value worked out at 0.93 (CYSLTR2, tracer 0.1μM) and 1.00 (CYSLTR2, tracer 1μM).
Regarding `Cc1cc2c(s1)Nc1ccccc1N=C2N1CCN(CCCNC(=O)CCOCCOCCOCCOCCNC(=O)CCc2ccc3n2[B-](F)(F)[N+]2=C(c4ccc[nH]4)C=CC2=C3)CC1` [Olanzapine-a-2-NB590], the “NanoBRET Fold Response” value amounted to 0.95 (CYSLTR2, tracer 0.1μM) and 0.99 (CYSLTR2, tracer 1μM).
Taken in the same sequence, the figures for `N#CN=C(NCCCOc1cccc(CN2CCCCC2)c1)NCCNC(=O)CCOCCOCCOCCOCCNC(=O)CCc1ccc2n1[B-](F)(F)[N+]1=C(c3ccc[nH]3)C=CC1=C2` [Aminopotentidine-2-NB590] were 1.05 and 0.98.
The matching figures for `Cc1nc2n(c(=O)c1CCN1CCC(c3noc4cc(F)ccc34)CC1)CCCC2OC(=O)NCCOCCOCCOCCOCCNC(=O)CCc1ccc2n1[B-](F)(F)[N+]1=C(c3ccc[nH]3)C=CC1=C2` (stereo not drawn) [Risperidone-2-NB590]: 0.97 and 1.15.
Taken in the same sequence, the figures for `CN(C)CCC=C1c2ccccc2CCc2ccc(C(=O)NCCNC(=O)CCOCCOCCOCCOCCNC(=O)CCc3ccc4n3[B-](F)(F)[N+]3=C(c5ccc[nH]5)C=CC3=C4)cc21` [Amitriptyline-b-2-NB590] were 0.95 and 1.04.
